Assay [1] has as its system ANGPTL4, a PPARG target gene, in HT1197 (RXRA S427F mutation) cells. Briefly: Bladder cancer pharmacodynamic assay (HT1197 cell assay, qPCR of PPARG target genes). It counts as cell-based. As to conditions: Homo sapiens; for inhibition at 0.1 µM: 100 nM compound, 24 hours, relative to DMSO control; for EC50: 24 hours treatment, qPCR. The procedure: 5637 (PPARG amplified) and HT1197 (RXRA S427F mutation) cells were used for assessment of modulation of PPARG target genes using quantitative PCR. Cells were treated for 24 hours with PPARG inverse agonists prior to analysis of FABP4 (IDT, Cat: Hs.PT 58.20106818) and ANGPTL4 (IDT, Cat: Hs.PT 58.25480012) expression, with expression of the housekeeping gene TBP (IDT, Cat: Hs.PT 58v.39858774) used to normalize expression across samples. Quantitative PCR was performed using an ABI QuantStudio 7 Flex Reaction system. Data were analyzed and reported relative to DMSO control using the comparative Ct method (ΔΔCt).

The target in assay [2] is T1, PPARG/RXRA LBD heterodimer (Homo sapiens, UniProt P37231).
T1 construct: His-TEV-Q203-Y477; Uniprot ID P37231-2; made in house; host or cells: E. coli
T1 sequence (P37231 203-477 isoform P37231-2): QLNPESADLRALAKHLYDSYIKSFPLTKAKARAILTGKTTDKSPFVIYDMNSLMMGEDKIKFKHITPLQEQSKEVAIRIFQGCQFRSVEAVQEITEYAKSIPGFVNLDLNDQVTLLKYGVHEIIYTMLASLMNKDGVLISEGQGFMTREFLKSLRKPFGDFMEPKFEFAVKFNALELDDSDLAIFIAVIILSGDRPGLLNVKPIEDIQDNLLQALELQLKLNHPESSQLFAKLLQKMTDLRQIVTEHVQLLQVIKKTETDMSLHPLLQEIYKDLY
T1 sequence (P19793 228-462 partner limits assumed): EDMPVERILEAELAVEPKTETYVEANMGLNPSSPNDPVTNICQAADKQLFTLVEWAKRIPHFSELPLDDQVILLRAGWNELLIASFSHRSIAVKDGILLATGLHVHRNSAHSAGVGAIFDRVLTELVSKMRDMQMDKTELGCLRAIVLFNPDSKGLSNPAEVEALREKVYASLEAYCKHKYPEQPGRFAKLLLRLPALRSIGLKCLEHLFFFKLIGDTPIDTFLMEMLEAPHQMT
Put plainly: PPARγ-MED1 blockade assay (TR-FRET). Format: binding. Particulars: MED1 LxxLL peptide, 80 nM Rosiglitazone, 3 hours. The protocol: Compound potency (IC50) and maximal extent of MED1 repulsion to PPARG were assessed a TR-FRET binding assay measuring association of a biotinylated MED1 LxxLL peptide (Biotin—[…]-amide) to PPARG/RXRA LBD heterodimer. Specifically, a 20 microliters of TR-FRET master mix consisting of 2 nM WT PPARG LBD (e. coli expressed, His-TEV-Q203-Y477; Uniprot ID P37231-2), 2 nM WT RXRA LBD (e. coli expressed, Flag-TEV-E228-T462; […]. Mixtures were incubated for 3 hours and read in an EnVision plate reader (Perkin Elmer) with Ex/Em 615/665. To determine the potency (IC50) and extent of MED1 repulsion, TR-FRET ratios were normalized to the average ratio of DMSO control wells (0%) and to the average minimum ratio for positive control compound (GW9662 (2-chloro-5-nitrobenzanilide); defined as 100%) in CDD Vault and analyzed using the Levenberg-Marquardt algorithm.

For assay [3], the target named is T2, PPARG/RXRA LBD heterodimer (Homo sapiens, UniProt P37231).
T2 construct: 2 nM WT PPARG LBD (e. coli expressed, His-TEV-Q203-Y477); fused on or other part: N-terminal His tag with TEV site on the PPARG LBD
Put plainly: PPARγ-NCOR1 recruitment assay (TR-FRET). Format: binding. As to conditions: NCOR1 ID2 peptide, 80 nM Rosiglitazone, 3 hours, read-out: PPARG - NCOR recruitment assay EC50. The procedure: Compound potency (EC50) and maximal extent of NCOR1 recruitment to PPARG were assessed a TR-FRET binding assay measuring association of a biotinylated NCOR1 ID2 peptide (Biotin-[…]-amide) to PPARG/RXRA LBD heterodimer. Specifically, a 20 microliters of TR-FRET master mix consisting of 2 nM WT PPARG LBD (e. coli expressed, His-TEV-Q203-Y477; Uniprot ID P37231-2), 2 nM WT RXRA LBD or mutant S427F RXRA LBD (e. coli expressed, Flag-TEV-E228-T462; […]. Mixtures were incubated for 3 hours and read in an EnVision plate reader (Perkin Elmer) with Ex/Em 615/665. To determine the potency (EC50) and extent of NCOR1 recruitment, TR-FRET ratios were normalized to the average ratio of DMSO control wells (0%) and to the average maximum ratio for positive control compound (T0070907 (2-chloro-5-nitro-N-4-pyridinyl-benzamide); defined as 100%) in CDD Vault and analyzed using the Levenberg-Marquardt algorithm.
T2 sequence (O75376 2251-2273 limits assumed, one chain of several, further chain): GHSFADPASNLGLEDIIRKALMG

Turning to `CS(=O)(=O)c1ccc(C#N)cc1C(=O)Nc1ccc(C#N)c(Cl)c1` [Example 1, N-(3-chloro-4-cyanophenyl)-5-cyano-2-(methylsulfonyl)benzamide], in assay [1], at 0.1 µM the inhibition was 86%. The concentration giving a half-maximal response (EC50) in assay [1] is 0.0052 µM; in assay [2], 0.1 to 1 µM; in assay [3] it was 0.1 to 1 µM.
As for `N#Cc1ccc(SC(F)(F)F)c(C(=O)Nc2cc(F)c(-c3ccc(C(F)F)nc3)c(F)c2)c1` [Example 2, 5-cyano-N-(4-(6-(difluoromethyl)pyridin-3-yl)-3,5-difluorophenyl)-2-((trifluorometh-yl)thio)benzamide], in assay [1], testing at 0.1 µM gave an inhibition of 83%. In addition, the EC50 in assay [2] and in assay [3] was 0.1 to 1 µM in each case.
As to `Cc1ccc(-c2c(F)cc(NC(=O)c3cc(C#N)ccc3SC(F)(F)F)cc2F)cn1` [Example 3, 5-cyano-N-(3,5-difluoro-4-(6-methylpyridin-3-yl)phenyl)-2-((trifluorometh-yl)thio)benzamide], the inhibition at 0.1 µM in assay [1] amounted to 57%. In addition, the EC50 in assay [2] is 0.1 to 1 µM; in assay [3] it was 0.01 to 0.1 µM.
`Cc1ccc(-c2c(F)cc(NC(=O)c3cc(C#N)ccc3S(C)(=O)=O)cc2F)cn1` [Example 4, 5-cyano-N-(3,5-difluoro-4-(6-methylpyridin-3-yl)phenyl)-2-(methylsulfonyl) benzamide]: in assay [1], testing at 0.1 µM gave an inhibition of 74%. In addition, the EC50 in assay [2] and in assay [3] was 0.1 to 1 µM throughout.
In assay [1], `CS(=O)(=O)c1ccc(C#N)cc1C(=O)Nc1cc(F)cc(F)c1` [Example 5, 5-cyano-N-(3,5-difluorophenyl)-2-(methylsulfonyl) benzamide] yielded an inhibition at 0.1 µM of 40%. The EC50 in assay [2] lay in the range of 1 to 10 µM; in assay [3], 0.1 to 1 µM.
The corresponding values for `N#Cc1ccc(SC(F)(F)F)c(C(=O)Nc2cc(F)cc(F)c2)c1` [Example 6, 5-cyano-N-(3,5-difluorophenyl)-2-(trifluorometh-ylsulfanyl)ben-zamide] are 54%, 0.1 to 1 µM and 0.1 to 1 µM.
In turn, `CS(=O)(=O)c1ccc(C#N)cc1C(=O)Nc1ccc(C#N)c(C(F)(F)F)c1` [Example 7, 5-cyano-N-(4-cyano-3-(trifluorometh-yl)phenyl)-2-(methylsulfonyl) benzamide] showed an inhibition at 0.1 µM in assay [1] of 77%. The EC50 in assay [2] and in assay [3] was 1 to 10 µM each time.
Turning to `CS(=O)(=O)c1ccc(C#N)cc1C(=O)Nc1cc(Cl)cc(Cl)c1` [Example 8, 5-cyano-N-(3,5-dichlorophenyl)-2-(methylsulfonyl) benzamide], in assay [1], at 0.1 µM the inhibition was 41%. The EC50 in assay [2] and in assay [3] was 0.1 to 1 µM throughout.
The compound `CS(=O)(=O)c1ccc(C#N)cc1C(=O)Nc1ccnc(C(F)(F)F)c1` [Example 9, 5-cyano-2-(methylsulfonyl)-N-(2-(trifluorometh-yl)pyridin-4-yl)benzamide] had an inhibition at 0.1 µM in assay [1] of 64%. For the same compound, the EC50 in assay [2] and in assay [3] was 1 to 10 µM in each case.
For `CS(=O)(=O)c1ccc(C#N)cc1C(=O)Nc1ccc(C(F)(F)F)c(C#N)c1` [Example 10, 5-cyano-N-(3-cyano-4-(trifluorometh-yl)phenyl)-2-(methylsulfonyl) benzamide], the inhibition at 0.1 µM in assay [1] was 48%. For the same compound, the EC50 in assay [2] and in assay [3] was 0.1 to 1 µM throughout.
On to `CN1Cc2ccc(-c3c(F)cc(NC(=O)c4cc(C#N)ccc4S(C)(=O)=O)cc3F)cc2C1=O` [Example 11, 5-cyano-N-(3,5-difluoro-4-(2-methyl-3-oxoisoindolin-5-yl)phenyl)-2-(methylsulfonyl) benzamide], for which the inhibition at 0.1 µM in assay [1] was 79%. Moreover, the EC50 in assay [1] was 0.0013 µM; in assay [2], 0.1 to 1 µM; in assay [3] it was 0.01 to 0.1 µM.
The compound `CN1CCN(c2ccc(NC(=O)c3cc(C#N)ccc3S(C)(=O)=O)cn2)CC1` [Example 12, 5-cyano-N-(6-(4-methylpiperazin-1-yl)pyridin-3-yl)-2-(methylsulfonyl) benzamide] registered an inhibition at 0.1 µM in assay [1] of 25%. The concentration for a half-maximal effect (EC50) in assay [2] and in assay [3] was over 10 µM in each case.
Compound `CS(=O)(=O)c1ccc(C#N)cc1C(=O)Nc1cc(F)c(-c2ccc(C(F)F)nc2)c(F)c1` [Example 13, 5-cyano-N-(4-(6-(difluoromethyl)pyridin-3-yl)-3,5-difluorophenyl)-2-(methylsulfonyl) benzamide] displayed an inhibition at 0.1 µM in assay [1] of 80%. For the same compound, the EC50 in assay [1] is 0.0029 µM; in assay [2] it was 0.1 to 1 µM; in assay [3], 0.1 to 1 µM.
Compound `CS(=O)(=O)c1ccc(C#N)cc1C(=O)Nc1ccc2cnccc2c1` [Example 14, 5-cyano-N-(isoquinolin-6-yl)-2-(methylsulfonyl) benzamide] had an inhibition at 0.1 µM in assay [1] of 35%. For the same compound, the EC50 in assay [2] and in assay [3] was 1 to 10 µM throughout.
`N#Cc1ccc(SC(F)(F)F)c(C(=O)Nc2cc(Cl)cc(Cl)c2)c1` [Example 15, 5-cyano-N-(3,5-dichlorophenyl)-2-((trifluorometh-yl)thio)benzamide]: at 0.1 µM the inhibition in assay [1] was 46%. For the same compound, the 50% effective concentration (EC50) in assay [2] and in assay [3] was 0.01 to 0.1 µM each time.
With `CS(=O)(=O)c1ccc(C#N)cc1C(=O)Nc1cc(F)cc(Oc2ccc(Cl)cc2)c1` [Example 16, N-(3-(4-chlorophenoxy)-5-fluorophenyl)-5-cyano-2-(methylsulfonyl) benzamide], the EC50 in assay [2] and in assay [3] was 0.01 to 0.1 µM each time.
`CS(=O)(=O)c1ccc(C#N)cc1C(=O)Nc1ccc(F)c(C#N)c1` [Example 17, 5-cyano-N-(3-cyano-4-fluorophenyl)-2-(methylsulfonyl) benzamide]: the inhibition at 0.1 µM in assay [1] worked out at 43%. Also, the EC50 in assay [2] and in assay [3] was 1 to 10 µM each time.
In the case of `CC(=O)N1CCN(c2ccc(NC(=O)c3cc(C#N)ccc3S(C)(=O)=O)cn2)CC1` [Example 18, N-(6-(4-acetylpiperazin-1-yl)pyridin-3-yl)-5-cyano-2-(methylsulfonyl) benzamide], in assay [1], testing at 0.1 µM gave an inhibition of 13%. Also, the half-maximal effective concentration (EC50) in assay [2] and in assay [3] was over 10 µM each time.
Turning to `Cc1cc(NC(=O)c2cc(C#N)ccc2S(C)(=O)=O)cc(C)n1` [Example 19, 5-cyano-N-(2,6-dimethylpyridin-4-yl)-2-(methylsulfonyl) benzamide], in assay [1], 0.1 µM produced 20% inhibition. The EC50 in assay [2] and in assay [3] was over 10 µM each time.
`CS(=O)(=O)c1ccc(C#N)cc1C(=O)Nc1ccn2nccc2c1` [Example 20, 5-cyano-2-(methylsulfonyl)-N-(pyrazolo[1,5-a]pyridin-5-yl)benzamide] yielded an inhibition at 0.1 µM in assay [1] of 0%. Also, the EC50 in assay [2] and in assay [3] was over 10 µM throughout.
`CS(=O)(=O)c1ccc(C#N)cc1C(=O)Nc1ccc(C#N)c(F)c1` [Example 21, 5-cyano-N-(4-cyano-3-fluorophenyl)-2-(methylsulfonyl) benzamide] yielded an inhibition at 0.1 µM in assay [1] of 79%. The EC50 in assay [2] and in assay [3] was 1 to 10 µM each time.
